These results are taken from patent US20220040092A1, “Ready to use injectable formulations of Micafungin Sodium” (RK Pharma Solutions LLC, priority 2020, published 2022).

Values joined by “and” are separate entries in the source; they are usually repeats but may differ in a detail not shown here. Identical values can stand only once. Like-named read-outs stand apart in the source and are kept apart here. Starred links: 1 amine or outer side, 2 acyl side, 3 side chain; linkers in the order of their positions; H or OH if unused. Positions of bridges follow the written chain, without caps; N, C: chain ends. Non-standard residues stand in square brackets, D forms with d. Residues, ends and D or L forms follow the SMILES beside them. *: point of attachment. hTyr(3S-OH,4S-OH,3'-OSO3H) = N[C@H](C(=O)O)[C@H](O)[C@@H](O)c1ccc(O)c(OS(=O)(=O)O)c1; Orn(4R-OH,5R-OH) = O=C([C@H](C[C@@H](O)[C@@H](O)N[*:3])N[*:1])[*:2]; Pro(3S-OH,4S-Me) = C[C@H]1CN[C@H](C(=O)O)[C@H]1O; X1 = CCCCCOc1ccc(-c2cc(-c3ccc(C(=O)*)cc3)no2)cc1; Gln(3R-OH) = NC(=O)C[C@@H](O)[C@H](N)C(=O)O; Hyp = O=C(O)[C@@H]1C[C@@H](O)CN1

The conditions of data set [1]: cited from earlier work.
The nature of data set [2]: Storage stability of ready-to-use micafungin sodium solution in vials at 2-8° C. (purity and impurities by RRT). The data set is classed as physicochemical. To be noted: API (drug substance used). As to the method:
As used herein, “relative retention time” (“RRT”) is calculated by dividing the retention time of the peak of interest by the retention time of the main peak. Any peak with an RRT<1 elutes before the main peak, and any peak with an RRT>1 elutes after the main peak. […]

Regarding `CCCCCOc1ccc(-c2cc(-c3ccc(C(=O)N[C@H]4C[C@@H](O)[C@@H](O)NC(=O)[C@@H]5[C@@H](O)[C@@H](C)CN5C(=O)[C@H]([C@H](O)CC(N)=O)NC(=O)[C@H]([C@H](O)[C@@H](O)c5ccc(O)c(OS(=O)(=O)O)c5)NC(=O)[C@@H]5C[C@@H](O)CN5C(=O)[C@H]([C@@H](C)O)NC4=O)cc3)no2)cc1` [Micafungin sodium, {5-[(1S,2S)-2-[(3S,6S,9S,11R,15S,18S,20R,21R,24S,25S,26S)-3-[(1R)-2-carbamoyl-1-hydroxyethyl]-11,20,21,25-tetrahydroxy-15-[(1R)-1-hydroxyethyl]-26-methyl-2,5,8,14,17,23-hexaoxo-18-[(4-{5-[4-(pentyloxy)phenyl]-1,2-oxazol-3-yl)benzene)amido]-1,4,7,13,16,22-hexaazatricyclo[22.3.0.0.0^9,13]heptacosan-6-yl]-1,2-dihydroxyethyl]-2-hydroxyphenyl} oxidanesulfonic acid] (X1-[Orn(4R-OH,5R-OH)]T[Hyp][hTyr(3S-OH,4S-OH,3'-OSO3H)][Gln(3R-OH)][Pro(3S-OH,4S-Me)]; lactam 1-C), the Solubility result was “freely soluble” in data set [1] (N,N-dimethylformamide); “practically insoluble” in data set [1] (acetone); “practically insoluble” in data set [1] (acetonitrile); “practically insoluble” in data set [1] (diethyl ether); “freely soluble” in data set [1] (dimethylsulfoxide); “practically insoluble” in data set [1] (ethyl alcohol (95%)). Moreover, the Solubility entry is listed as “freely soluble” in data set [1] (isotonic sodium chloride solution), “slightly soluble” in data set [1] (methyl alcohol), “practically insoluble” in data set [1] (n-hexane) and “freely soluble” in data set [1] (water). For the same compound, the “Imp at RRT 1.02” value in data set [2] is listed as 0.24. Further, the “Imp at RRT 0.93” value in data set [2] (listed as API) is 0.64 and 0.58. The “Imp. E” value in data set [2] (listed as API) is 0.01 and 0.02. Also, the Purity in data set [2] (listed as API) was 99.25 and 98.97.
